Data as given in patent US8853420B2, “Compounds” (Boehringer Ingelheim International GmbH, priority 2008, dated 2014).

biological target: T1, Xenopus laevis Aurora B/INCENP complex (Xenopus laevis, UniProt Q6DE08); experiment: Aurora-B kinase assay (radioactive enzyme inhibition assay); type: biochemical; conditions: test substance at 1 μM; percentage of the positive control (maximum value without test substance)
T1 construct: equipped at the N-terminal position with a GST tag (amino acids 60-361); GST (N, cleaved yes); made in house; host or cells: E. coli BL21 (DE3)
Description: Example Aurora-B Kinase Assay
A radioactive enzyme inhibition assay was developed using E. coli-expressed recombinant Xenopus laevis Aurora B wild-type protein equipped at the N-terminal position with a GST tag (amino acids 60-361) in a complex with Xenopus laevis INCENP (amino acids 790-847), which is obtained from bacteria and purified. In equivalent manner a Xenopus laevis Aurora B mutant (G96V) in a complex with Xenopus laevis INCENP^790-847 may also be used.
Expression and Purification
The coding sequence for Aurora-B^60-361 from Xenopus laevis is cloned into a modified version of pGEX-6T (Amersham Biotech) via BamHI and SalI cutting sites. The vector contains two cloning cassettes which are separated by a ribosomal binding site, allowing bi-cistronic expression. In this configuration Xenopus laevis Aurora B is expressed by the first cassette, and the Xenopus laevis INCENP^790-847 is expressed by the second cassette. The resulting vector is pAUB-IN^847.
First of all the E. coli strain BL21 (DE3) is co-transformed with pUBS520 helper plasmid and pAUB-IN^847, after which protein expression is induced using 0.3 mM IPTG at an OD600 of 0.45-0.7. The expression is then continued for approx. 12-16 h at 23-25° C. with agitation.
The bacteria are then removed by centrifuging and the pellet is lysed in lysis buffer (50 mM Tris/Cl pH 7.6, 300 mM NaCl, 1 mM DTT, 1 mM EDTA, 5% glycerol, Roche Complete Protease Inhibitor tablets) using ultrasound, using 20-30 mL lysis buffer per liter of E. coli culture. The lysed material is freed from debris by centrifugation (12000 rpm, 45-60 min, JA20 rotor). The supernatant is incubated with 300 μL of equilibrated GST Sepharose Fast Flow (Amersham Biosciences) per liter of E. coli culture for 4-5 h at 4° C. Then the column material is washed with 30 volumes of lysis buffer and then equilibrated with 30 volumes of cleavage buffer (50 mM Tris/Cl pH 7.6, 150 mM NaCl, 1 mM DTT, 1 mM EDTA). To cleave the GST tag from Aurora B, 10 units of Prescission Protease (Amersham Biosciences) are used per milligram of substrate and the mixture is incubated for 16 h at 4° C. The supernatant which contains the cleavage product is loaded onto a 6 mL Resource Q column (Amersham Biosciences) equilibrated with ion exchange buffer (50 mM Tris/Cl pH 7.6, 150 mM NaCl, 1 mM DTT, 1 mM EDTA). The Aurora B/INCENP complex is caught as it flows through, then concentrated and loaded onto a Superdex 200 size exclusion chromatography (SEC) column equilibrated with SEC buffer (10 mM Tris/Cl pH 7.6, 150 mM NaCl, 1 mM DTT, 1 mM EDTA). Fractions which contain the AuroraB/INCENP complex are collected and concentrated using Vivaspin concentrators (molecular weight exclusion 3000-5000 Da) to a final concentration of 12 mg/mL. Aliquots (e.g. 240 ng/μL) for kinase assays are transferred from this stock solution into freezing buffer (50 mM Tris/Cl pH 8.0, 150 mM NaCl, 0.1 mM EDTA, 0.03% Brij-35, 10% glycerol, 1 mM DTT) and stored at −80° C.
Test substances are placed in a polypropylene dish (96 wells, Greiner #655 201), in order to cover a concentration frame of 10 μM-0.0001 μM. The final concentration of DMSO in the assay is 5%. 30 μL of protein mix (50 mM tris/Cl pH 7.5, 25 mM MgCl2, 25 mM NaCl, 167 μM ATP, 10 ng Xenopus laevis Aurora B/INCENP complex in freezing buffer) are pipetted into the 10 μl of test substance provided in 25% DMSO and this is incubated for 15 min at RT. Then 10 μL of peptide mix (100 mM tris/Cl pH 7.5, 50 mM MgCl2, 50 mM NaCl, 5 μM NaF, 5 μM DTT, 1 μCi gamma-P33-ATP [Amersham], 50 μM substrate peptide [biotin-[…] or multimers thereof, or biotin-[…] or multimers thereof, or biotin-[…]]) are added. The reaction is incubated for 75 min (ambient temperature) and stopped by the addition of 180 μL of 6.4% trichloroacetic acid and incubated for 20 min on ice. […]

T1 sequence (Q6DE08 60-361): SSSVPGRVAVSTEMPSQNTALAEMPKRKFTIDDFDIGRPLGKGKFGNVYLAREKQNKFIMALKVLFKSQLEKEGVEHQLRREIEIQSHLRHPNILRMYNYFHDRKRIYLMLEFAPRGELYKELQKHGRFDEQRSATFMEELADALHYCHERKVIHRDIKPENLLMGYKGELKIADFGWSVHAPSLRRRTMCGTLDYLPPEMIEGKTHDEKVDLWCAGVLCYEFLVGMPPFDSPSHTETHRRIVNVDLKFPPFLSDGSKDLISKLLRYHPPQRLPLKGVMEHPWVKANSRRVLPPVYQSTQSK
T1 sequence (O13024 790-847 partner limits assumed): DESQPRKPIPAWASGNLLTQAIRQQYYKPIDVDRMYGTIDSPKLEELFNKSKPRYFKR

Row | Structure (SMILES) | remaining activity at 1 µM
1 | CCNc1cnc(-c2ccc3c(c2)NC(=O)/C3=C(\Nc2ccc(CN(C)C)cc2)c2ccccc2)cn1 [Example 1] | 15.2%
2 | CN(C)Cc1ccc(N/C(=C2\C(=O)Nc3cc(-c4cnc(NCC5CC5)cn4)ccc32)c2ccccc2)cc1 [Example 2] | 12.6%
3 | CCNc1ccc(-c2ccc3c(c2)NC(=O)/C3=C(\Nc2ccc(CN(C)C)cc2)c2ccccc2)cn1 [Example 5] | 7.08%
4 | CN(C)Cc1ccc(N/C(=C2\C(=O)Nc3cc(-c4ccc(N(C)C)nc4)ccc32)c2ccccc2)cc1 [Example 6] | 11.4%
5 | CN(C)Cc1ccc(N/C(=C2\C(=O)Nc3cc(-c4cnc(N5CCCC5)nc4)ccc32)c2ccccc2)cc1 [Example 10] | 10.6%
6 | CN(C)Cc1ccc(N/C(=C2\C(=O)Nc3cc(-c4ccc(N5CCOCC5)nc4)ccc32)c2ccccc2)cc1 [Example 14] | 20.7%
7 | CN(C)Cc1ccc(N/C(=C2\C(=O)Nc3cc(-c4ccc(OCC5CC5)nc4)ccc32)c2ccccc2)cc1 [Example 15] | 22%
8 | Cc1cnccc1-c1ccc2c(c1)NC(=O)/C2=C(\Nc1ccc(CN(C)C)cc1)c1ccccc1 [Example 20] | 107%
9 | CN(C)Cc1ccc(N/C(=C2\C(=O)Nc3cc(-c4ccccc4NS(C)(=O)=O)ccc32)c2ccccc2)cc1 [Example 23] | 70.6%
10 | CN(C)Cc1ccc(N/C(=C2\C(=O)Nc3cc(-c4cnc5ccccc5c4)ccc32)c2ccccc2)cc1 [Example 40] | 34.7%
11 | CN(C)Cc1ccc(N/C(=C2\C(=O)Nc3cc(-c4cnc(C(=O)O)nc4)ccc32)c2ccccc2)cc1 [Example 42] | 139%
12 | CN(C)Cc1ccc(N/C(=C2\C(=O)Nc3cc(-c4cnc(N(C)C)nc4)ccc32)c2ccccc2)cc1 [Example 44] | 27.9%
13 | CN(C)Cc1ccc(N/C(=C2\C(=O)Nc3cc(-c4cnc(NC5CCC5)nc4)ccc32)c2ccccc2)cc1 [Example 45] | 1.76%
14 | CC(C)Nc1ncc(-c2ccc3c(c2)NC(=O)/C3=C(\Nc2ccc(CN(C)C)cc2)c2ccccc2)cn1 [Example 46] | 2.13%
15 | CN(C)Cc1ccc(N/C(=C2\C(=O)Nc3cc(-c4cnc(NCC(F)F)nc4)ccc32)c2ccccc2)cc1 [Example 47] | 1.59%
16 | CN(C)Cc1ccc(N/C(=C2\C(=O)Nc3cc(-c4cnc(NC5CC5)nc4)ccc32)c2ccccc2)cc1 [Example 48] | 3.44%

Row | Structure (SMILES) | remaining activity at 1 µM
17 | CCCNc1ncc(-c2ccc3c(c2)NC(=O)/C3=C(\Nc2ccc(CN(C)C)cc2)c2ccccc2)cn1 [Example 50] | 2.79%
18 | CN(C)Cc1ccc(N/C(=C2\C(=O)Nc3cc(-c4cnc(NCC5CC5)nc4)ccc32)c2ccccc2)cc1 [Example 51] | 3.84%
19 | CCNc1ncc(-c2ccc3c(c2)NC(=O)/C3=C(\Nc2ccc(CN(C)C)cc2)c2ccccc2)cn1 [Example 52] | 2.78%
20 | CN(C)Cc1ccc(N/C(=C2\C(=O)Nc3cc(-c4ccc(NCC5CC5)nc4)ccc32)c2ccccc2)cc1 [Example 55] | 5.91%
21 | CN(C)Cc1ccc(N/C(=C2\C(=O)Nc3cc(-c4ccc(NC5CCC5)nc4)ccc32)c2ccccc2)cc1 [Example 56] | 5.45%
22 | CCCNc1ccc(-c2ccc3c(c2)NC(=O)/C3=C(\Nc2ccc(CN(C)C)cc2)c2ccccc2)cn1 [Example 57] | 5.74%
23 | CC(C)Nc1ccc(-c2ccc3c(c2)NC(=O)/C3=C(\Nc2ccc(CN(C)C)cc2)c2ccccc2)cn1 [Example 58] | 8.01%
24 | CN(C)Cc1ccc(N/C(=C2\C(=O)Nc3cc(-c4ccc(NC5CC5)nc4)ccc32)c2ccccc2)cc1 [Example 59] | 9.19%
25 | CN(C)Cc1ccc(N/C(=C2\C(=O)Nc3cc(-c4ccc5c(c4)CC(=O)N5)ccc32)c2ccccc2)cc1 [Example 60] | 26.3%
26 | CN(C)Cc1ccc(N/C(=C2\C(=O)Nc3cc(-c4cn[nH]c4)ccc32)c2ccccc2)cc1 [Example 61] | 14.1%
27 | COc1cncc(-c2ccc3c(c2)NC(=O)/C3=C(\Nc2ccc(CN(C)C)cc2)c2ccccc2)c1 [Example 63] | 11%
28 | CN(C)Cc1ccc(N/C(=C2\C(=O)Nc3cc(-c4cccc(-n5cccn5)c4)ccc32)c2ccccc2)cc1 [Example 64] | 13.4%
29 | CN(C)Cc1ccc(N/C(=C2\C(=O)Nc3cc(-c4cccc(S(=O)(=O)N(C)C)c4)ccc32)c2ccccc2)cc1 [Example 65] | 27.6%
30 | CC(C)Nc1ncc(-c2cc3c(cc2F)/C(=C(/Nc2ccc(CN(C)C)cc2)c2ccccc2)C(=O)N3)cn1 [Example 73] | 5.59%
31 | CC(C)Nc1ncc(-c2ccc3c(c2)NC(=O)/C3=C(\Nc2ccc(N(C)C(=O)CN(C)C)cc2)c2ccccc2)cn1 [Example 75] | 1.74%
32 | CC(C)Nc1ncc(-c2ccc3c(c2)NC(=O)/C3=C(\NC2CCOCC2)c2ccccc2)cn1 [Example 77] | 96.2%

Results, then the molecule that gave them:

Row | remaining activity at 1 µM | Structure (SMILES)
33 | 15.6% | CNc1ccc(-c2ccc3c(c2)NC(=O)/C3=C(\Nc2ccc(CN(C)C)cc2)c2ccccc2)cn1 [Example 8]
34 | 40% | CN(C)Cc1ccc(N/C(=C2\C(=O)Nc3cc(-c4ccc(S(C)(=O)=O)cc4)ccc32)c2ccccc2)cc1 [Example 12]
35 | 21.1% | Cc1ccc(-c2ccc3c(c2)NC(=O)/C3=C(\Nc2ccc(CN(C)C)cc2)c2ccccc2)cn1 [Example 17]
36 | 30.9% | CN(C)Cc1ccc(N/C(=C2\C(=O)Nc3cc(-c4cccc(C#N)c4)ccc32)c2ccccc2)cc1 [Example 39]
37 | 13.5% | CC(=O)c1cncc(-c2ccc3c(c2)NC(=O)/C3=C(\Nc2ccc(CN(C)C)cc2)c2ccccc2)c1 [Example 41]
38 | 102% | CN(C)Cc1ccc(N/C(=C2\C(=O)Nc3cc(-c4ccc(C(N)=O)cc4)ccc32)c2ccccc2)cc1 [Example 43]
39 | 157% | CN(C)Cc1ccc(N/C(=C2\C(=O)Nc3cc(-c4ccc(C(=O)O)nc4)ccc32)c2ccccc2)cc1 [Example 54]
40 | 1.96% | CC(=O)Nc1ccc(-c2ccc3c(c2)NC(=O)/C3=C(\Nc2ccc(CN(C)C)cc2)c2ccccc2)cn1 [Example 62]
41 | 18.3% | CN(C)Cc1ccc(N/C(=C2\C(=O)Nc3cc(-c4ccc(N)nc4)ccc32)c2ccccc2)cc1 [Example 66]
42 | 5.48% | CN(C)Cc1ccc(N/C(=C2\C(=O)Nc3cc(-c4cccc(S(N)(=O)=O)c4)ccc32)c2ccccc2)cc1 [Example 67]
43 | 18.1% | CN(C)Cc1ccc(N/C(=C2\C(=O)Nc3cc(-c4cccc(C(N)=O)c4)ccc32)c2ccccc2)cc1 [Example 68]
44 | 17.2% | CC(=O)Nc1cccc(-c2ccc3c(c2)NC(=O)/C3=C(\Nc2ccc(CN(C)C)cc2)c2ccccc2)c1 [Example 69]
45 | 17.3% | COc1ccc(-c2ccc3c(c2)NC(=O)/C3=C(\Nc2ccc(CN(C)C)cc2)c2ccccc2)cn1 [Example 70]
46 | 24.5% | CN(C)Cc1ccc(N/C(=C2\C(=O)Nc3cc(-c4cccnc4)ccc32)c2ccccc2)cc1 [Example 71]
47 | 3.37% | CC(=O)Nc1ccc(-c2ccc3c(c2)NC(=O)/C3=C(\Nc2ccc(CN(C)C)cc2)c2ccccc2)cc1 [Example 72]
